Data published in patent US6203817A (priority 1998, dated 2001).

Key:
[1] = Critical micelle concentration (CMC) in water; assay type: physicochemical
From the text: According to this embodiment, the salt form is selected by measuring its CMC in water by methods known in the art, for example, by the use of a surface tensiometer. […] The CMC provides a measure of the surface activity of the particular drug salt.

[2] = test system: skin of hairless guinea pigs; experiment: Urinary excretion kinetics / skin depot of fluoxetine; assay type: in vivo, hairless guinea pig
From the text: (§1) Skin sites on hairless guinea pigs were lightly washed.

[3] = cited from earlier work
[4] = test system: skin of hairless guinea pigs; experiment: Paroxetine gels skin irritation at equivalent flux; assay type: in vivo, hairless guinea pig; conditions: FIG. 8
From the text: as §1
All paroxetine gels contained paroxetine base, 40% ethanol, 35% propylene glycol, water, and 5% HPMC. Placebo gels were identical with water replacing the paroxetine. Paroxetine acetate gels contained paroxetine base, acetic acid, water, and 2% HEC. […] All paroxetine gels contained approximately 28 μCi ^3 H paroxetine per ml.

SMILES: CN(C)CCCN1c2ccccc2Sc2ccc(Cl)cc21 [chlorpromazine acetate]
- CMC [1]: 0.02 M

SMILES: CNCCC(Oc1ccc(C(F)(F)F)cc1)c1ccccc1 (centres unmarked) [fluoxetine base, fluoxetine]
- skin depot (urinary excretion) ([2]; fluoxetine base): a skin depot is observed
- pKa [3]: 9.7

SMILES: Fc1ccc([C@@H]2CCNC[C@H]2COc2ccc3c(c2)OCO3)cc1 [paroxetine acetate]
- irritation vs paroxetine base gels at equivalent flux [4]: reduced

SMILES: CNCCC(Oc1ccc(C(F)(F)F)cc1)c1ccccc1 (centres unmarked) [fluoxetine acetate]
- CMC [1]: 0.05 M
- skin depot (urinary excretion) ([2]; acidified with excess acetic acid to pH 5): the skin depot is eliminated
- kinetics of elimination (urinary excretion) ([2]; acidified with excess acetic acid to pH 5, compared with intravenous administration): close to that observed following intravenous administration of the drug
- skin depot (urinary excretion) ([2]; fluoxetine acetate, pH 6.5): the skin depot is reduced but is still present
